Data on eight compounds can be found in PMC8201324, “Pyrazoles and Pyrazolines as Anti-Inflammatory Agents” (Molecules, 2021).

Series [1] in a line: Inhibition of linoleic acid lipid peroxidation (AAPH). The class given is biochemical. As to the method: For the lipid peroxidation study, 2,2′-azobis(2-amidinopropane) hydrochloride (AAPH) was used for the generation of peroxyl radicals. The generation of the conjugated diene hydroperoxide derived from the oxidation of sodium linoleate in an aqueous solution was recorded at 234 nm. The compounds presented high anti-lipid peroxidation activity (78–100%) (Table 4). Pyrazolines 2a and 2b present lower anti-lipid peroxidation activity (89% and 78% respectively).
(§1) A stock solution (1% DMSO in the appropriate buffer with the tested compound diluted under sonication) was prepared for the in vitro assays from which several dilutions were made with the appropriate buffer. The in vitro experiments were performed at least in triplicate, and the standard deviation of absorbance was less than 10% of the mean.
AAPH was used as free radical initiator of alkylperoxyl radicals. The ability of the compounds to prevent the oxidation of linoleic acid sodium salt from alkylperoxyl radicals was recorded at 234 nm. Trolox was used as reference (93%) (Table 4).

The nature of series [2]: ABTS+ decolorization assay for antioxidant activity. The format is biochemical.
Description: Pyrazolines 2d and 2e which are the most lipophilic compounds, showing antioxidant activity using the ABTS radical cation (ABTS^•+) generated through potassium persulfate by oxidation with no participation of an intermediary radical. This reduction is completed by adding electron-donating antioxidants. It seems that lipophilicity influences the activity, since both present high lipophilicity values.
as §1
The ABTS radical cation (ABTS^+•) was generated by mixing ABTS stock solution in water (7 mM) with potassium persulfate (2.45 mM) and left in the dark at room temperature for 12–16 h before use. The results are recorded immediately after the mixing solutions at 734 nm. The results were compared to the appropriate standard inhibitor Trolox (Table 4).

Series [3] has as its system carrageenin-induced rat paw edema. The series is described as follows: Inhibition of the carrageenin-induced rat paw edema. The format is in vivo, Fisher 344 rats. Conditions: for CPE % (reduction in the rat paw edema induced by carrageenin): 0.0057 mmol/Kg body weight, intraperitoneally, 3.5 h after carrageenin; for anti-inflammatory activity in carrageenin-induced rat paw edema (in words): intraperitoneal administration. The source says:
The carrageenin-induced rat paw edema assay was used, as a model of acute inflammation. Inflammation induced by carrageenan is acute, non-immune, well-researched, and highly reproducible, and is described as a biphasic event. Cardinal signs of inflammation—edema, hyperalgesia, and erythema, are developed immediately following subcutaneous injection, resulting from the action of pro-inflammatory agents: bradykinin, histamine, tachykinins, complement reactive oxygen and nitrogen species. It is known that NSAIDs act during the second phase of prostaglandin release, presenting weak activity in the first phase of histamine and serotonin release.
The animals (Fisher 344 rats), were housed under standard conditions, and received a diet of commercial food pellets and water ad libitum during the maintenance, but were entirely fasted during the experiment period. Both sexes were used, while pregnant females were excluded. Each group was composed of 6–15 animals. Our studies were in accordance with recognized guidelines on animal experimentation (guidelines for the care and use of laboratory animals published by the Greek Government 160/1991, based on EU regulations 86/609). Rats were kept in the Centre of the School of Veterinary Medicine (EL54 BIO42), Aristotle University of Thessaloniki, which is registered by the official state veterinary authorities (presidential degree 56/2013, in harmony with the European Directive 2010/63/EEC). The experimental protocols were approved by the Animal Ethics Committee of the Prefecture of Central Macedonia.
Carrageenin in water as an intradermal injection of 0.1 mL 2% was used for the induction of the edema in the right hind paw of the rats, according to the previously reported method. Animals were divided in five-membered groups and the tested compounds were suspended in water (0.0057 mmol/kg body weight), with a few drops of Tween 80, ground in a mortar before administered intraperitoneally simultaneously. The rats were euthanized 3.5 h after carrageenin injection. Comparison of the change in paw weight with that in control animals (treated with water) was expressed as a percent inhibition of the oedema CPE% values using indomethacin (IMA) as a reference compound. Values CPE% are the mean from two different experiments with a standard error of the mean less than 10% (Table 5). Student’s T test was applied.
In general terms: In the carrageenan paw model, swelling and tenderness develop within hours.

Series [4] has as its target T1, soybean lipoxygenase (Glycine max, UniProt P08170).
T1 construct: purchased Sigma Chemical, Co
T1 sequence (P08170 1-839): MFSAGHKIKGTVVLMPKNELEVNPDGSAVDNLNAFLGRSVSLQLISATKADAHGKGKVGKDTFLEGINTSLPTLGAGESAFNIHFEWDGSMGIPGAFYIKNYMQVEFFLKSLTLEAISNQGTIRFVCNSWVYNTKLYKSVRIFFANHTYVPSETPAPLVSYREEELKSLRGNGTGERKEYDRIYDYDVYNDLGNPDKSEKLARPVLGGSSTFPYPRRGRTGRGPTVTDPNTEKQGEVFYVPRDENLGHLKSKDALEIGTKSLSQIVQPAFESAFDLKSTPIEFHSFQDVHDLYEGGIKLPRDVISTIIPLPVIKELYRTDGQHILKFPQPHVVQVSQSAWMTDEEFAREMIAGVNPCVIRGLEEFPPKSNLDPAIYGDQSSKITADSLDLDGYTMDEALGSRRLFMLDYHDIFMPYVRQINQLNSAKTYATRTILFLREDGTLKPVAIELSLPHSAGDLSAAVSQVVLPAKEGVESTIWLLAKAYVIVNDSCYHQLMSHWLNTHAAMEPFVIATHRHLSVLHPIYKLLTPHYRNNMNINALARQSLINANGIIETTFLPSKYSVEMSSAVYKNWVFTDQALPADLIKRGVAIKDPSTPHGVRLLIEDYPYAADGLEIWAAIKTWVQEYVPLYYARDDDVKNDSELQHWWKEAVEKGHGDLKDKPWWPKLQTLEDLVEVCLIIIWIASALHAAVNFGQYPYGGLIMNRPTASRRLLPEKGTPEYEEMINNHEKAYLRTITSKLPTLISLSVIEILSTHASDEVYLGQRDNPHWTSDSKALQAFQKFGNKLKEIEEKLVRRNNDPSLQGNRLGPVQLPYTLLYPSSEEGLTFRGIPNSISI
The series is described as follows: Soybean lipoxygenase inhibition study. The class given is biochemical. To be noted: sodium linoleate 0.1 mM; for LOX % Inhibition at 100 µM / inhibition at 100 µM: compound 100 µM; for inhibition at 100 µM: read-out: LOX % Inhibition at 100 µM. As to the method: Lipoxygenase (LOX) is the key enzyme implicated in membrane lipid peroxidation by forming hydroperoxides, thus it is considered a target for inflammatory diseases. […] For the in vitro study, soybean lipoxygenase was used, based on the homology to mammalian lipoxygenase. […] A stock solution (1% DMSO in the appropriate buffer with the tested compound diluted under sonication) was prepared for the in vitro assays from which several dilutions were made with the appropriate buffer. […] The stock solutions of the compounds were incubated with sodium linoleate (0.1 mM) and 0.2 mL of soybean lipoxygenase solution (1/9 × 10^-4 w/v in saline) at room temperature. In vitro test was performed as previously published.

Marks after values point to notes of the source that are not given here.

For the compound “1-(5-(4-((4-bromobenzyl)oxy)phenyl)-3-(thiophen-2-yl)-1H-pyrazol-1-yl)ethan-1-one [Compound 2c]”, the “AAPH% 100 µM (anti-lipid peroxidation)” value in series [1] is reported as 100%. Moreover, the “ABTS^+ % 100 µM (decolorization activity)” value (“ABTS^+ % 100 µM” for short) in series [2] is “no”. Further, in series [3], the “CPE % (reduction in the rat paw edema induced by carrageenin)” value was 38.0 * % and the “anti-inflammatory activity in carrageenin-induced rat paw edema (in words)” value (“anti-inflammatory activity” for short) is reported as “medium activity”. Moreover, the “LOX % Inhibition at 100 µM” value in series [4] is 42%.

Turning to “5-(4-((4-bromobenzyl)oxy)phenyl)-3-(4-chlorophenyl)-4,5-dihydro-1H-pyrazole [Compound 2e]”, the “AAPH% 100 µM (anti-lipid peroxidation)” value in series [1] was found to be 98%. Besides, in series [2], the “ABTS^+ % 100 µM” value is reported as 30%. For the same compound, in series [3], the “CPE % (reduction in the rat paw edema induced by carrageenin)” value was 56.0 ** % and the “anti-inflammatory activity” value is given as “highest anti-inflammatory activity”. Besides, in series [4], the “LOX % Inhibition at 100 µM” value came out at 16%.

One may read the inhibition as the percentage by which the read-out fell short of the control. Broadly, the melting point is the temperature of the solid-liquid transition. On to `c1ccc(C2=NNC(c3cccc4ccccc34)C2)cc1` (centres unmarked) [Compound 2a, 5-(naphthalen-1-yl)-3-phenyl-4,5-dihydro-1H-pyrazole], for which the melting point was 45 to 47 °C. Moreover, the “AAPH% 100 µM (anti-lipid peroxidation)” value in series [1] was 89%. For the same compound, the “ABTS^+ % 100 µM” value in series [2] is given as “no”. Also, in series [3], the “CPE % (reduction in the rat paw edema induced by carrageenin)” value was “no” and the “anti-inflammatory activity” value is “inactive”. The inhibition at 100 µM in series [4] is 35%.

With `Clc1ccc(C2=NNC(c3ccc4[nH]ccc4c3)C2)cc1` (centres unmarked) [Compound 2b, 5-(3-(4-chlorophenyl)-4,5-dihydro-1H-pyrazol-5-yl)-1H-indole], the melting point fell in the range of 96 to 98 °C. The “AAPH% 100 µM (anti-lipid peroxidation)” value in series [1] turned out to be 78%. Further, the “ABTS^+ % 100 µM” value in series [2] is on record as “no”. Also, in series [3], the “CPE % (reduction in the rat paw edema induced by carrageenin)” value is 27.0 * % and the “anti-inflammatory activity” value is recorded as “medium activity”. Besides, the inhibition at 100 µM in series [4] is 17%.

For `Brc1ccc(COc2ccc(C3CC(c4ccccc4)=NN3)cc2)cc1` (centres unmarked) [Compound 2d, 5-(4-((4-bromobenzyl)oxy)phenyl)-3-phenyl-4,5-dihydro-1H-pyrazole], the melting point was in the range of 98 to 100 °C. Moreover, the “AAPH% 100 µM (anti-lipid peroxidation)” value in series [1] is on record as 96%. The “ABTS^+ % 100 µM” value in series [2] worked out at 15%. Further, in series [3], the “CPE % (reduction in the rat paw edema induced by carrageenin)” value is 63.0 ** % and the “anti-inflammatory activity” value was “highest anti-inflammatory activity”. Further, in series [4], the inhibition at 100 µM was determined as 13%.

For `CC(=O)n1nc(-c2ccccc2)cc1-c1ccc2[nH]ccc2c1` [Compound 2f, 1-(5-(1H-indol-5-yl)-3-phenyl-1H-pyrazol-1-yl)ethan-1-one], the melting point lay in the range of 65 to 66 °C. Further, in series [1], the “AAPH% 100 µM (anti-lipid peroxidation)” value is 95%. In series [2], the “ABTS^+ % 100 µM” value is listed as “no”. In addition, in series [3], the “CPE % (reduction in the rat paw edema induced by carrageenin)” value is 30.0 * % and the “anti-inflammatory activity” value is reported as “medium activity”. For the same compound, the inhibition at 100 µM in series [4] is 3%.

As usually defined, the IC50 is the concentration at which inhibition is half-maximal. In turn, `CC(=O)n1nc(-c2ccc(Cl)cc2)cc1-c1cccc2ccccc12` [Compound 2g, 1-(3-(4-chlorophenyl)-5-(naphthalen-1-yl)-1H-pyrazol-1-yl)ethan-1-one] came in with a melting point of 53 to 55 °C. The “AAPH% 100 µM (anti-lipid peroxidation)” value in series [1] was determined as 100%. For the same compound, the “ABTS^+ % 100 µM” value in series [2] is recorded as “no”. Also, in series [3], the “CPE % (reduction in the rat paw edema induced by carrageenin)” value is listed as 33.0 * % and the “anti-inflammatory activity” value was “medium activity”. Also, in series [4], the inhibition at 100 µM amounted to 60%. Further, the IC50 in series [4] (soybean lipoxygenase, read-out: LOX IC50) came out at 80 µM.

`CC(=O)n1nc(-c2ccccc2)cc1-c1cccc(Oc2ccccc2)c1` [Compound 2h, 1-(5-(3-phenoxyphenyl)-3-phenyl-1H-pyrazol-1-yl)ethan-1-one] came in with a melting point of 44 to 46 °C. Besides, the “AAPH% 100 µM (anti-lipid peroxidation)” value in series [1] came to 97%. For the same compound, the “ABTS^+ % 100 µM” value in series [2] is “no”. Moreover, in series [3], the “CPE % (reduction in the rat paw edema induced by carrageenin)” value is given as 16.0 * % and the “anti-inflammatory activity” value was “low activity”. In addition, the inhibition at 100 µM in series [4] turned out to be 26%.
